Source: publication PMC9870890 (Nature Communications, 2023)
Residue numbers refer to the chain shown, from its start. pIC50: −log10 of the molar value. “And” between values parts separate entries of the source, which are not always exact repeats. Identical values can stand only once.

Key:
[1] = target: T1, M2R (Homo sapiens, UniProt P08172); experiment: biochemical; type: binding; design: expressed in transfected cells; conditions: for pIC50: IC50 ([3H]-NMS competition)
T1 sequence (P08172 1-466): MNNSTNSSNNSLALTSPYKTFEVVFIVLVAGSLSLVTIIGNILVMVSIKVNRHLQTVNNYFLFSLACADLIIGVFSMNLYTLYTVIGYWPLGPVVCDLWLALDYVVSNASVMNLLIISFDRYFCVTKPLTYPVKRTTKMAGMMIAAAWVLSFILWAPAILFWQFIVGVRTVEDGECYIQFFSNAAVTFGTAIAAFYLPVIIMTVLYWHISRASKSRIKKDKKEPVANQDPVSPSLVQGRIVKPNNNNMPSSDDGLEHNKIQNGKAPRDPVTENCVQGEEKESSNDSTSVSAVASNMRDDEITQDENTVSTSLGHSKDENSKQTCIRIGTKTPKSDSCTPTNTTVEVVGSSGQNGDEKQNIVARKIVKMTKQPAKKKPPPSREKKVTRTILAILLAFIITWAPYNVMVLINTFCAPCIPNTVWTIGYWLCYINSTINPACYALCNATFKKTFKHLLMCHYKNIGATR
Method: Purified M2R receptor was reconstituted into high-density lipoprotein (HDL) particles constituting apolipoprotein A1(APOA1) and mixture of POPG: POPC lipids with 3:2 (mol:mol)ratio as previously described. […] Membranes or HDL particles were separated from excess [^3H]-NMS by Whatman GF/B filters using a Brandel 48-well harvester. The bound radioligand were read on a liquid scintillation counter (MicroBeta Jet, PerkinElmer). Data were analyzed by GraphPad Prism 9.2.0.

[2] = target: T2, M2R and GoA (Homo sapiens, UniProt P08172); experiment: GTPase-Glo assay (GTP turnover) with purified M2R and GoA; type: biochemical; conditions: for Residual GTP (%): 90 min, normalized to GoA alone
T2 construct: FLAG (N); 8xHis (C); made in house; host or cells: Sf9 insect cells (receptor)
Method: The receptors for GTPase-Glo^TM assay were expressed and purified as described above and frozen at −80 °C before use. […] The GTPase reaction was incubated at room temperature (22–25 °C) for different times (15–90 min). […] After incubation, 5 μL reconstituted 1xGTPase-Glo^TM Reagent (Promega) was added to the completed GTPase reaction, mixed briefly and incubated with shaking for 30 min at room temperature (22–25 °C) to convert the remaining GTP into ATP. Then 10 μL Detection Reagent (Promega) was added to the system and incubated for 5-10 min at room temperature (22–25 °C) to convert the ATP into luminescent signals. Luminescence intensity was quantified using a Multimode Plate Reader (PerkinElmer) luminescence counter.

[3] = target: T3, human, wild-type M2R (Homo sapiens, UniProt P08172); experiment: NanoBiT-G-protein (GoA) dissociation assay, wild-type M2R, HEK293A cells; type: cell-based; conditions: for NanoBiT-GoA dissociation signal, Mean (Veh = 1.000): n = 4
T3 construct: expressed in transfected cells; host or cells: HEK293A
T3 sequence (P08172 1-466): T1 sequence (P08172 1-466)

[4] = tested on: Mock; experiment: NanoBiT-GoA dissociation assay, Mock-transfected cells (control); type: cell-based
[5] = target: T4, M2R L129^34.51A mutant (Homo sapiens, UniProt P08172, L129A); experiment: NanoBiT-GoA dissociation assay, L129A mutant M2R
T4 sequence (P08172 1-466 L129A): T1 sequence (P08172 1-466) with L129A

T2 sequence (P59768 2-68, one chain of several): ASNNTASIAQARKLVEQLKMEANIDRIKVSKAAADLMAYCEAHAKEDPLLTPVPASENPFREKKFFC
T2 sequence (P09471 2-354, one chain of several, further chain): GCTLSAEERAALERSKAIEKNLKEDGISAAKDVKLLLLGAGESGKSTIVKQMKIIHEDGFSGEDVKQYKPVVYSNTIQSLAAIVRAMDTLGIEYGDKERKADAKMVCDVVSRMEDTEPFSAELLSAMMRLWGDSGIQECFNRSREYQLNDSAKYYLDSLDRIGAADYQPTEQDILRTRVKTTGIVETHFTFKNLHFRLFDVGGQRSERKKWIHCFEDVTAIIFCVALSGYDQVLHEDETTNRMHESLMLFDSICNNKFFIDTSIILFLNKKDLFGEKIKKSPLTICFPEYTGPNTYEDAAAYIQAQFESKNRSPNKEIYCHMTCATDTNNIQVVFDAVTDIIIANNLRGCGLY
T2 sequence (P62873 whole entry, one chain of several, further chain): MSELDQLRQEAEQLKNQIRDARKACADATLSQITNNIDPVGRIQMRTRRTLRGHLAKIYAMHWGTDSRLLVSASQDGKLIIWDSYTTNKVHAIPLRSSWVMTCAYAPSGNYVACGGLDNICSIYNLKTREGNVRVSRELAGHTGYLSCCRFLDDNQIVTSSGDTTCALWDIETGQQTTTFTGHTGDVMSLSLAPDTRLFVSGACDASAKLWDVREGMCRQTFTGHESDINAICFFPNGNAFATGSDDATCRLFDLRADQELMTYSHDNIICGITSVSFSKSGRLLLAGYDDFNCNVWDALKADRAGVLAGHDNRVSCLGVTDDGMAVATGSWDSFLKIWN

**Q.** How did the pIC50 ([1]; M2R in HDL particles, +GoA) turn out when `C[N+](C)(C)CC#CCOC1=NOCC1` [Ixo, iperoxo] was run?
**A.** 8.74

**Q.** What about the pIC50 ([1]; M2R in HDL particles, absence of GoA) of the same molecule?
**A.** 7.32

**Q.** And the “increase of affinity on addition of GoA” value ([1]; M2R in HDL particles)?
**A.** ~ 27 fold

**Q.** And the “competition curve data, Fig. 1b ([3H]-NMS binding)” value (“competition curve data, Fig. 1b” below) ([1]; log[M] -6, without GoA)?
**A.** 5.629 and 5.897 and 4.938

**Q.** And the “competition curve data, Fig. 1b” value ([1]; log[M] -7, +GoA)?
**A.** 1.735 and 2.591

**Q.** What about the “competition curve data, Fig. 1b” value ([1]; log[M] -7, without GoA) of the same molecule?
**A.** 32.2784 and 32.9838 and 32.0245

**Q.** And the “competition curve data, Fig. 1b” value ([1]; log[M] -8, +GoA)?
**A.** 6.41 and 4.7831 and 8.225

**Q.** And the “competition curve data, Fig. 1b” value ([1]; log[M] -8, without GoA)?
**A.** 80.5549 and 71.1592 and 70.0024

**Q.** And the “competition curve data, Fig. 1b” value ([1]; log[M] -9, +GoA)?
**A.** 64.4578 and 59.7146 and 77.1975

**Q.** What about the “competition curve data, Fig. 1b” value ([1]; log[M] -9, without GoA) of the same molecule?
**A.** 92.3489 and 93.3083 and 87.8063

**Q.** What about the “competition curve data, Fig. 1b” value ([1]; log[M] -10, +GoA) of the same molecule?
**A.** 85.6735 and 79.355 and 99.5434

**Q.** And the “competition curve data, Fig. 1b” value ([1]; log[M] -10, without GoA)?
**A.** 97.3148 and 101.914 and 100.771

**Q.** And the “competition curve data, Fig. 1b” value ([1]; log[M] -11, +GoA)?
**A.** 89.0468 and 92.1461 and 118.807

**Q.** And the “competition curve data, Fig. 1b” value ([1]; log[M] -11, without GoA)?
**A.** 86.0992 and 80.6395 and 89.0477

**Q.** And the “competition curve data, Fig. 1b” value ([1]; log[M] -12, +GoA)?
**A.** 107.797 and 98.7044 and 86.8037

**Q.** What about the “competition curve data, Fig. 1b” value ([1]; log[M] -12, without GoA) of the same molecule?
**A.** 98.7115 and 87.2702 and 99.5439

**Q.** What about the “Residual GTP (%)” value ([2]; +DMSO) of the same molecule?
**A.** 7.331% and 3.598% and 1.619%

**Q.** What about the “Residual GTP (%)” value ([2]; +LY2119620 (100 μM)) of the same molecule?
**A.** 34.958% and 41.3656% and 22.0231%

**Q.** What about the “GTP-turnover, Fig. 1c (GTPase-Glo luminescence)” value ([2]; time 15 min, 100 μM ACh or 10 μM Ixo, M2R-GoA) of the same molecule?
**A.** 432481 and 362971 and 431239 and 324973

**Q.** What about the “∆pEC50” value ([3]; WT (1:1), reference) of the same molecule?
**A.** 0.000

**Q.** And the “NanoBiT-GoA dissociation signal, Mean (Veh = 1.000)” value (“NanoBiT-GoA dissociation signal” for short) ([3]; WT (1:1), IXO Log [M] -6)?
**A.** 0.334

**Q.** And the “NanoBiT-GoA dissociation signal” value ([3]; WT (1:1), IXO Log [M] -7)?
**A.** 0.343

**Q.** What about the “NanoBiT-GoA dissociation signal” value ([3]; WT (1:1), IXO Log [M] -8) of the same molecule?
**A.** 0.377

**Q.** What about the “NanoBiT-GoA dissociation signal” value ([3]; WT (1:1), IXO Log [M] -9) of the same molecule?
**A.** 0.510

**Q.** What about the “NanoBiT-GoA dissociation signal” value ([3]; WT (1:1), IXO Log [M] -10) of the same molecule?
**A.** 0.788

**Q.** What about the “NanoBiT-GoA dissociation signal” value ([3]; WT (1:1), IXO Log [M] -11) of the same molecule?
**A.** 0.961

**Q.** What about the “NanoBiT-GoA dissociation signal” value ([3]; WT (1:1), IXO Log [M] -12) of the same molecule?
**A.** 1.000

**Q.** And the “∆pEC50” value ([3]; WT (1:2))?
**A.** -0.203 and -0.153 and -0.342 and -0.212

**Q.** What about the “NanoBiT-GoA dissociation signal” value ([3]; WT (1:2), IXO Log [M] -6) of the same molecule?
**A.** 0.338

**Q.** And the “NanoBiT-GoA dissociation signal” value ([3]; WT (1:2), IXO Log [M] -7)?
**A.** 0.345

**Q.** What about the “NanoBiT-GoA dissociation signal” value ([3]; WT (1:2), IXO Log [M] -8) of the same molecule?
**A.** 0.397

**Q.** What about the “NanoBiT-GoA dissociation signal” value ([3]; WT (1:2), IXO Log [M] -9) of the same molecule?
**A.** 0.567

**Q.** And the “NanoBiT-GoA dissociation signal” value ([3]; WT (1:2), IXO Log [M] -10)?
**A.** 0.844

**Q.** What about the “NanoBiT-GoA dissociation signal” value ([3]; WT (1:2), IXO Log [M] -11) of the same molecule?
**A.** 0.975

**Q.** And the “NanoBiT-GoA dissociation signal” value ([3]; WT (1:2), IXO Log [M] -12)?
**A.** 1.005

**Q.** And the “NanoBiT-GoA dissociation signal” value ([4]; IXO Log [M] -6, n = 3)?
**A.** 0.990

**Q.** What about the “NanoBiT-GoA dissociation signal” value ([4]; IXO Log [M] -7, n = 3) of the same molecule?
**A.** 0.997

**Q.** And the “NanoBiT-GoA dissociation signal” value ([4]; IXO Log [M] -8, n = 3)?
**A.** 0.995

**Q.** What about the “NanoBiT-GoA dissociation signal” value ([4]; IXO Log [M] -9, n = 3) of the same molecule?
**A.** 1.002

**Q.** And the “NanoBiT-GoA dissociation signal” value ([4]; IXO Log [M] -10, n = 3)?
**A.** 1.001

**Q.** What about the “NanoBiT-GoA dissociation signal” value ([4]; IXO Log [M] -11, n = 3) of the same molecule?
**A.** 1.005

**Q.** And the “NanoBiT-GoA dissociation signal” value ([4]; IXO Log [M] -12, n = 3)?
**A.** 1.002

**Q.** And the “∆pEC50” value [5]?
**A.** -0.434 and -0.475 and -0.315

**Q.** What about the “NanoBiT-GoA dissociation signal” value ([5]; IXO Log [M] -6, n = 3) of the same molecule?
**A.** 0.336

**Q.** What about the “NanoBiT-GoA dissociation signal” value ([5]; IXO Log [M] -7, n = 3) of the same molecule?
**A.** 0.355

**Q.** What about the “NanoBiT-GoA dissociation signal” value ([5]; IXO Log [M] -8, n = 3) of the same molecule?
**A.** 0.423

**Q.** And the “NanoBiT-GoA dissociation signal” value ([5]; IXO Log [M] -9, n = 3)?
**A.** 0.635

**Q.** What about the “NanoBiT-GoA dissociation signal” value ([5]; IXO Log [M] -10, n = 3) of the same molecule?
**A.** 0.887

**Q.** And the “NanoBiT-GoA dissociation signal” value ([5]; IXO Log [M] -11, n = 3)?
**A.** 0.985

**Q.** And the “NanoBiT-GoA dissociation signal” value ([5]; IXO Log [M] -12, n = 3)?
**A.** 1.001
